Measurements as given in patent US9193689B2, “3-aryl-5-substituted-isoquinolin-1-one compounds and their therapeutic use” (INSTITUTE OF CANCER RESEARCH: ROYAL CANCER HOSPITAL (THE), priority 2012, dated 2015).

Molecular target: TNKS1 (Homo sapiens, UniProt O95271)
Test: TNKS1/PARP Biochemical Assay (TNKS1)
Details: not given

SMILES | IC50
CN1CCN(c2ccc(-c3cc4c(Cl)cccc4c(=O)[nH]3)cn2)CC1 [IQ-002] | 39 nM
CN(CC1CCN(C(=O)OC(C)(C)C)CC1)S(=O)(=O)c1ccc(-c2cc3c(Cl)cccc3c(=O)[nH]2)cc1 [IQ-114] | < 500 nM
Cc1cccc2c(=O)[nH]c(-c3ccc(S(=O)(=O)N(C)CC4CCNCC4)cc3)cc12 [IQ-115] | < 20 nM
CN(CC1CCNCC1)S(=O)(=O)c1ccc(-c2cc3c(Cl)cccc3c(=O)[nH]2)cc1 [IQ-116] | < 50 nM
Cc1cccc2c(=O)[nH]c(-c3ccc(S(=O)(=O)N(C)CCN(C)C)cc3)cc12 [IQ-117] | < 20 nM
Cc1cccc2c(=O)[nH]c(-c3ccc(S(=O)(=O)N(C)CC4CCOCC4)cc3)cc12 [IQ-118] | < 20 nM
Cc1cccc2c(=O)[nH]c(-c3ccc(S(=O)(=O)N(C4CC4)C4CCN(C)CC4)cc3)cc12 [IQ-119] | < 500 nM
Cc1cccc2c(=O)[nH]c(-c3ccc(S(=O)(=O)N(C)CCO)cc3)cc12 [IQ-120] | < 20 nM
CN1CCN(S(=O)(=O)c2ccc(-c3cc4c(Cl)cccc4c(=O)[nH]3)cc2)CC1 [IQ-122] | < 500 nM
Cc1cccc2c(=O)[nH]c(-c3ccc(S(=O)(=O)N4CCNCC4)cc3)cc12 [IQ-123] | < 20 nM
Cc1cccc2c(=O)[nH]c(-c3ccc(S(=O)(=O)N4CCC(N(C)C)CC4)cc3)cc12 [IQ-125] | < 20 nM
CN(C)C1CCN(S(=O)(=O)c2ccc(-c3cc4c(Cl)cccc4c(=O)[nH]3)cc2)CC1 [IQ-126] | < 500 nM
Cc1cccc2c(=O)[nH]c(-c3ccc(OCCN4CCCC4)cc3)cc12 [IQ-134] | < 50 nM
CC(C)(C)OC(=O)N1CCN(c2ccc(-c3cc4c(Cl)cccc4c(=O)[nH]3)cn2)CC1 [IQ-136] | < 500 nM
CN1CCN(Cc2ccc(-c3cc4c(F)cc(F)cc4c(=O)[nH]3)cc2)CC1 [IQ-138] | < 50 nM
Cc1cccc2c(=O)[nH]c(-c3ccc(S(=O)(=O)N4CCN(C(=O)OC(C)(C)C)CC4)cc3)cc12 [IQ-140] | < 500 nM
Cc1cccc2c(=O)[nH]c(-c3ccc(CN4CCN(C(=O)OC(C)(C)C)CC4C)cc3)cc12 (stereo not drawn) [IQ-142] | < 500 nM
Cc1cccc2c(=O)[nH]c(-c3ccc(CN4CCN(C(=O)OC(C)(C)C)C(C)C4)cc3)cc12 (stereo not drawn) [IQ-143] | < 500 nM
CN(CC1CCN(C(=O)OC(C)(C)C)CC1)C(=O)c1ccc(-c2cc3c(Cl)cccc3c(=O)[nH]2)cc1 [IQ-145] | < 500 nM
Cc1ccc(S(=O)(=O)N2CCN(C(C)(C)c3ccc(-c4cc5c(C)cccc5c(=O)[nH]4)cc3)CC2)cc1 [IQ-148] | < 500 nM
CC(C)(C)OC(=O)N1CCN(Cc2ccc(-c3cc4c(F)cc(F)cc4c(=O)[nH]3)cc2)CC1 [IQ-154] | < 500 nM
O=c1[nH]c(-c2ccc(CN3CCNCC3)cc2)cc2c(F)cc(F)cc12 [IQ-158] | < 50 nM
Cc1cccc2c(=O)[nH]c(-c3ccc(CN4CCN(CC5CC5)CC4)nc3)cc12 [IQ-161] | < 500 nM
Cc1cccc2c(=O)[nH]c(-c3ccc(CN4CCN(C(=O)C5CC5)CC4)nc3)cc12 [IQ-162] | < 20 nM
Cc1cccc2c(=O)[nH]c(-c3ccc(CN4CCNC(=O)C4)cc3F)cc12 [IQ-166] | < 500 nM
Cc1cccc2c(=O)[nH]c(-c3ccc(CN4CC(O)C4)cc3)cc12 [IQ-167] | < 20 nM

SMILES | IC50
Cc1cccc2c(=O)[nH]c(-c3ccc(Cn4ccnc4C)cc3)cc12 [IQ-168] | < 20 nM
Cc1cccc2c(=O)[nH]c(-c3ccc(CN4CC(O)C4)c(F)c3)cc12 [IQ-169] | < 50 nM
Cc1cc(F)cc2c(=O)[nH]c(-c3ccc(CN4CC(O)C4)cc3)cc12 [IQ-170, 7-Fluoro-3-[4-(3-hydroxy-azetidin-1-ylmethyl)-phenyl]-5-methyl-2H-isoquinolin-1-one] | < 20 nM
Cc1cccc2c(=O)[nH]c(-c3ccc(Cn4cncn4)cc3)cc12 [IQ-171] | < 50 nM
Cc1cccc2c(=O)[nH]c(-c3ccc(CN4CC(C)(O)C4)cc3)cc12 [IQ-172] | < 20 nM
Cc1cccc2c(=O)[nH]c(-c3ccc(CN4CCC(N(C)C)C4)cc3)cc12 (stereo not drawn) [IQ-173] | < 50 nM
Cc1cccc2c(=O)[nH]c(-c3ccc(CC(=O)N4CCN(C)CC4)cc3)cc12 [IQ-175] | < 20 nM
Cc1cccc2c(=O)[nH]c(-c3ccc(CC(=O)N(C)C4CCN(C)CC4)cc3)cc12 [IQ-176] | < 20 nM
CNC1CN(Cc2ccc(-c3cc4c(C)cccc4c(=O)[nH]3)cc2)C1 [IQ-177] | < 20 nM
CNC1CN(Cc2ccc(-c3cc4c(C)cc(F)cc4c(=O)[nH]3)cc2)C1 [IQ-178] | < 20 nM
Cc1cccc2c(=O)[nH]c(-c3ccc(Cn4c(C)nc5ccccc54)cc3)cc12 [IQ-179] | < 500 nM
Cc1cccc2c(=O)[nH]c(-c3ccc(Cn4ccnc4)cc3)cc12 [IQ-180] | < 20 nM
Cc1cccc2c(=O)[nH]c(-c3ccc(Cn4cnc5ccccc54)cc3)cc12 [IQ-181] | < 500 nM
Cc1cccc2c(=O)[nH]c(-c3ccc(Cn4cccn4)cc3)cc12 [IQ-182] | < 20 nM
Cc1cccc2c(=O)[nH]c(-c3ccc(Cn4cccc4)cc3)cc12 [IQ-184] | < 500 nM
Cc1cc(F)cc2c(=O)[nH]c(-c3ccc(C(C)(C)N4CC(O)C4)cc3)cc12 [IQ-185] | < 50 nM
Cc1cc(F)cc2c(=O)[nH]c(-c3ccc(C(=O)N(C)C4CCNC4)cc3)cc12 (stereo not drawn) [IQ-186] | < 500 nM
COCCN(CCOC)C(=O)c1ccc(-c2cc3c(C)cccc3c(=O)[nH]2)cc1 [IQ-187] | < 50 nM
Cc1cccc2c(=O)[nH]c(-c3ccc(C(=O)N4CC(O)C4)cc3)cc12 [IQ-188] | < 20 nM
Cc1ccc(F)c2c(=O)[nH]c(-c3ccc(C(=O)N4CCN(C)CC4)cc3)cc12 [IQ-189] | < 20 nM
Cc1cc(F)cc2c(=O)[nH]c(-c3ccc(C(=O)N4CCN(CCO)CC4)cc3)cc12 [IQ-192] | < 20 nM
Cc1ccc(F)c2c(=O)[nH]c(-c3ccc(C(=O)N4CCN(CCO)CC4)cc3)cc12 [IQ-193] | < 20 nM
Cc1cccc2c(=O)[nH]c(-c3cc(F)c(C(=O)N4CC(O)C4)c(F)c3)cc12 [IQ-194] | < 20 nM
Cc1cc(F)cc2c(=O)[nH]c(-c3ccc(C(=O)N(C)C4CCN(C)CC4)cc3)cc12 [IQ-195] | < 20 nM
Cc1cccc2c(=O)[nH]c(-c3ccc(C(=O)N(C)C4CCN(C)C4)cc3)cc12 (stereo not drawn) [IQ-196] | < 20 nM
Cc1cc(F)cc2c(=O)[nH]c(-c3ccc(C(=O)N(C)C4CCN(C)C4)cc3)cc12 (stereo not drawn) [IQ-197] | < 20 nM

SMILES | IC50
Cc1cccc2c(=O)[nH]c(-c3ccc(C(=O)N(C)Cc4nccn4C)cc3)cc12 [IQ-198] | < 20 nM
Cc1cccc2c(=O)[nH]c(-c3ccc(C(=O)N(C)C4CN(C)C4)cc3)cc12 [IQ-199] | < 20 nM
Cc1cccc2c(=O)[nH]c(-c3ccc(C(=O)N(C)C4CCNC4)cc3)cc12 (stereo not drawn) [IQ-200] | < 20 nM
Cc1cc(F)cc2c(=O)[nH]c(-c3ccc(C(=O)N(C)C4CN(C)C4)cc3)cc12 [IQ-201] | < 50 nM
Cc1cccc2c(=O)[nH]c(-c3ccc(C(=O)N4CC(N(C)C)C4)cc3)cc12 [IQ-202] | < 500 nM
Cc1cc(F)cc2c(=O)[nH]c(-c3ccc(C(=O)N4CC(N(C)C)C4)cc3)cc12 [IQ-203] | < 50 nM
Cc1cccc2c(=O)[nH]c(-c3ccc(C(=O)N(C)CC4CCN(C)C4)cc3)cc12 (stereo not drawn) [IQ-204] | < 20 nM
Cc1cccc2c(=O)[nH]c(-c3ccc(C(=O)N(C)C4CCN(C(C)C)CC4)cc3)cc12 [IQ-206] | < 50 nM
Cc1cc(F)cc2c(=O)[nH]c(-c3ccc(C(=O)N(C)CC4CCN(C)CC4)cc3)cc12 [IQ-208] | < 20 nM
Cc1cccc2c(=O)[nH]c(-c3ccc(C(=O)N(C)CC4(C)CCN(C)C4)cc3)cc12 (stereo not drawn) [IQ-209] | < 20 nM
Cc1cc(F)cc2c(=O)[nH]c(-c3ccc(C(=O)N(C)CC4(C)CCN(C)C4)cc3)cc12 (stereo not drawn) [IQ-210] | < 20 nM
Cc1cccc2c(=O)[nH]c(-c3ccc(C(=O)N(C)C4CCCN(C)C4)cc3)cc12 (stereo not drawn) [IQ-211] | < 20 nM
Cc1cc(F)cc2c(=O)[nH]c(-c3ccc(C(=O)N(C)C4CCCN(C)C4)cc3)cc12 (stereo not drawn) [IQ-212] | < 50 nM
Cc1cc(F)cc2c(=O)[nH]c(-c3ccc(C(=O)N(C)C4CCNCC4)cc3)cc12 [IQ-213] | < 20 nM
Cc1cccc2c(=O)[nH]c(-c3ccc(CC(=O)N4CC(O)C4)cc3)cc12 [IQ-214] | < 20 nM
Cc1cc(F)cc2c(=O)[nH]c(-c3ccc(CC(=O)N4CC(O)C4)cc3)cc12 [IQ-215] | < 20 nM
Cc1cc(F)cc2c(=O)[nH]c(-c3ccc(C(C)(C)C(=O)N4CC(O)C4)cc3)cc12 [IQ-218] | < 50 nM
Cc1cccc2c(=O)[nH]c(-c3ccc(NC(CO)CO)nc3)cc12 [IQ-219] | < 20 nM
CN1CCN(C(=O)c2ccc(-c3cc4c(F)ccc(F)c4c(=O)[nH]3)cc2)CC1 [IQ-226] | < 50 nM
CN1CCN(C(=O)c2ccc(-c3cc4c(F)cc(F)cc4c(=O)[nH]3)cc2)CC1 [IQ-227] | < 20 nM
O=C(c1ccc(-c2cc3c(F)cc(F)cc3c(=O)[nH]2)cc1)N1CCN(CCO)CC1 [IQ-228, 5,7-Difluoro-3-{4-[4-(2-hydroxy-ethyl)-piperazine-1-carbonyl]-phenyl}-2H-isoquinolin-1-one] | < 50 nM
O=C(c1ncc(-c2cc3c(F)ccc(F)c3c(=O)[nH]2)cn1)N1CCN(CC2CC2)CC1 [IQ-229] | < 500 nM
CN1CCN(Cc2ccc(-c3cc4c(C#CCO)cccc4c(=O)[nH]3)cc2)CC1 [IQ-231] | < 50 nM
COCC#Cc1cccc2c(=O)[nH]c(-c3ccc(OCCN(C)C)cc3)cc12 [IQ-234] | < 500 nM
CN(C)CCOc1ccc(-c2cc3c(C#CCCO)cccc3c(=O)[nH]2)cc1 [IQ-236, 3-[4-(2-Dimethylaminoethoxy)phenyl]-5-(4-hydroxybut-1-ynyl)-2H-isoquinolin-1-one] | < 500 nM

Tested on: Wnt activity in DLD1-Wnt-Luc cells
Test: Wnt-Luciferase Reporter Assay
Details: read-out: Wnt IC50

SMILES | IC50
CN1CCN(c2ccc(-c3cc4c(Cl)cccc4c(=O)[nH]3)cn2)CC1 [IQ-002] | 179 nM
CN(C)Cc1ccc(-c2cc3ccccc3c(=O)[nH]2)cc1 [REF-4, reference compound] | > 10000 nM

Same assay, conditions: read-out: Wnt IC50, DLD1-Wnt-Luc cells

SMILES | IC50
CN(C)Cc1ccc(-c2cc3c(F)cccc3c(=O)[nH]2)cc1 [IQ-032] | < 5000 nM
CCc1cccc2c(=O)[nH]c(-c3ccc(CN4CCN(C(=O)OC(C)(C)C)CC4)cc3)cc12 [IQ-151, 4-[4-(5-Ethyl-1-oxo-1,2-dihydro-isoquinolin-3-yl)-benzyl]-piperazine-1-carboxylic acid tert-butyl ester] | < 5000 nM
